Measured values as given in EP1862459A1, “Novel heterocyclic compounds” (GLAXO GROUP LIMITED, priority 2006, dated 2007).
Converted amounts (≈) assume the structure as drawn.

Experiment: physchem
Assay type: physicochemical
Settings: fassif, pH 6.8, Solubility in FaSSIF µg/ml
Method: Compound solubility determination
An amount of 3 mg solid compound with LC-MS purity ≥ 95% was required. This amount was split between 3 different glass vials (1.8 ml volume each), placing 1 mg compound into each one.
Organic solvents of HPLC grade were used. Ultra pure water (Milli-Q grade) was used. Buffers were prepared with ultra pure water and filtered using 0.45 […] cameo filters. The compositions of each solvent employed in this assay are described below (part III).
For each of the three vial samples prepared as described above, in which the amount of compound was totally dissolved, the following procedure was subsequently carried out: • a) A small amount (approx. 0.1mg) of additional solid compound was added to the vial to maintain an excess of the compound in the mixture in the form of undissolved solid. • b) The samples were magnetically stirred for 24 hr. If required, additional solid compound (0.1mg) was added to maintain excess of it and then the samples were stirred again. • c) Then the samples were filtered (Millipore Milex filters nylon 0.2 um) and three aliquots were taken (one from each of the three vials) and analysed by LC-MS. • d) The pH of the final solution in each sample was measured with a pH-meter (WTW pH330i and a pH-electrode Sentix 41).
All filtered aliquots were analysed by LC-MS. […]

Row | solubility [µg/mL] | Compound
1 | 1 to 5 (≈ 2.34 to 11.7 µM) | CC1=C(Cl)C(=O)C(CO)(c2ccc(Oc3ccc(OC(F)(F)F)cc3)cc2)CN1 (centres unmarked) [Example 1, 3-Chloro-5-(hydroxymethyl)-2-methyl-5-[4-({4-[(trifluoromethyl)oxy]phenyl}oxy)phenyl]-4(1H)-pyridinone]
2 | 5 to 10 (≈ 11.4 to 22.8 µM) | Cc1[nH]c(C=NO)c(-c2ccc(Oc3ccc(OC(F)(F)F)cc3)cc2)c(=O)c1Cl [Example 5, 5-Chloro-6-methyl-4-oxo-3-[4-({4-[(trifluoromethyl)oxy]phenyl}oxy)phenyl]-1,4-dihydro-2-pyridinecarbaldehyde oxime]
